# Legend:
# OCT1*3 (R61C) = biological target: T1, OCT1*3 (R61C) (Homo sapiens, UniProt O15245, R61C); assay: Cellular uptake by HEK293 cells overexpressing OCT1*3; type: cell-based; conditions: for uptake by OCT1*3 in comparison to OCT1*1: 1 µM substance; for uptake of prostaglandins by OCT1*3 in comparison to wild-type: 1, 10 and 100 µM, 120 s
# T1 construct: expressed in transfected cells
# T1 sequence (O15245 1-554 R61C): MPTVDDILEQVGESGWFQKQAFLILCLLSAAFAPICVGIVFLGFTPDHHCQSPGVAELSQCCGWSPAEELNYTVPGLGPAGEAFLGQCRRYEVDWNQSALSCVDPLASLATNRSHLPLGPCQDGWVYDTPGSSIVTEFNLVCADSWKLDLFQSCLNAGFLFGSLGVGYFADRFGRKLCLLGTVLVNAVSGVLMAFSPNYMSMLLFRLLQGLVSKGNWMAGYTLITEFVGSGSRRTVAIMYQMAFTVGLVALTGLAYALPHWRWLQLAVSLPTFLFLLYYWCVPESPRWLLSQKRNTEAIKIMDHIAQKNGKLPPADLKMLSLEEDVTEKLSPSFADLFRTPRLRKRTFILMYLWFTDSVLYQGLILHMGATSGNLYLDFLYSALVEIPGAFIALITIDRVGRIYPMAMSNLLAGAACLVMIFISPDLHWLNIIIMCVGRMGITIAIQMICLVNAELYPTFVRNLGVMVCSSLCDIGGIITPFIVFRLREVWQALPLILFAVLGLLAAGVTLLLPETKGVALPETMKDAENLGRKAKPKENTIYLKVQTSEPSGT
# Description: The transport experiments were performed using HEK293 cells that overexpress human OCT1*1 (wild-type), mutant human OCT1 D474N, variant human OCT1*2 (M420del) and OCT1*3 (R61C), wild-type human OCT2, and OCT3 after stable transfection. The wild-type cell lines of OCT1 and OCT2, as well as the variant cell lines OCT1*2 and *3, were generated using the Flp-In system (Thermo Fisher Scientific, Darmstadt, Germany) as described in previous publications. The cell line overexpressing OCT3 was a kind gift from Dr. Koepsell and Dr. Gorbulev (University of Würzburg, Germany). Cells transfected with the empty pcDNA5/FRT vector were used for the transport experiments as a control cell line. All cells were cultured approximately up to passage 30.
# Forty-eight hours before the transport experiments, 600,000 cells were plated on 12-well plates pre-coated with poly-D-lysine and incubated at 37 °C with 5% CO2. The prepared 12-well plate with cells was positioned on a heating plate pre-warmed to 37 °C. After removing the medium, the cells were washed with 37 °C HBSS+ (10 mM HEPES in Hank’s balanced salt solution, pH 7.4). Then, one pre-defined concentration of a substrate was added to each well. The incubation period was stopped by adding 2 mL of 4 °C HBSS+ and removing the cells from the heating plate. The cells were washed twice with 4 °C HBSS+. For cell lysis, the cells were incubated for 15 min with 500 µL of 80% acetonitrile (LGC Standards, Wesel, Germany), which contained a respective internal standard (Table 1).
# For time-dependent transport, the cells were incubated with 1 µM of the substance for 15 to 240 s to determine the linear uptake range ≥ 15 s. For concentration-dependent transport, the cells were incubated with defined substrate concentrations (0.1, 1, 10, 30, 100, 300, 600, 1000 µM) for the respective pre-defined incubation times. […]; 100 µM) and pre-defined incubation times. The uptake by a transporter was normalised to the uptake by empty vector-transfected cells. […] The results of transport experiments were normalized to the total protein concentration per well. Total protein quantification was performed using a bicinchoninic acid assay with bovine serum albumin as standard.
# The ratios of cellular uptake were calculated by dividing the total uptake of transporter-overexpressing cells by the total uptake into empty vector transfected cells. The concentration-dependent cellular net uptake was used for analysis of transport kinetics by subtracting for each substrate concentration the uptake of empty vector-transfected cells from the uptake of transporter-overexpressing cells. The transport kinetic parameters Vmax and KM were determined with non-linear regression by using the Michaelis–Menten equation for net uptake data and by using the Michaelis–Menten equation extended with a linear term for total uptake data (GraphPad Prism 5.01, GraphPad software, LA Jolla, CA, USA). The intrinsic clearance Clint was expressed with the ratio of Vmax and KM.
# OCT3 = biological target: T2, OCT3 (Homo sapiens, UniProt O75751); assay: Cellular uptake ratio, OCT3-overexpressing HEK293 cells vs empty vector; type: cell-based; conditions: for OCT3 transport category: based on ratio uptake data at 1 µM
# T2 construct: expressed in transfected cells; host or cells: HEK293, stably transfected; gift from Dr. Koepsell and Dr. Gorbulev (University of Würzburg)
# T2 sequence (O75751 1-556): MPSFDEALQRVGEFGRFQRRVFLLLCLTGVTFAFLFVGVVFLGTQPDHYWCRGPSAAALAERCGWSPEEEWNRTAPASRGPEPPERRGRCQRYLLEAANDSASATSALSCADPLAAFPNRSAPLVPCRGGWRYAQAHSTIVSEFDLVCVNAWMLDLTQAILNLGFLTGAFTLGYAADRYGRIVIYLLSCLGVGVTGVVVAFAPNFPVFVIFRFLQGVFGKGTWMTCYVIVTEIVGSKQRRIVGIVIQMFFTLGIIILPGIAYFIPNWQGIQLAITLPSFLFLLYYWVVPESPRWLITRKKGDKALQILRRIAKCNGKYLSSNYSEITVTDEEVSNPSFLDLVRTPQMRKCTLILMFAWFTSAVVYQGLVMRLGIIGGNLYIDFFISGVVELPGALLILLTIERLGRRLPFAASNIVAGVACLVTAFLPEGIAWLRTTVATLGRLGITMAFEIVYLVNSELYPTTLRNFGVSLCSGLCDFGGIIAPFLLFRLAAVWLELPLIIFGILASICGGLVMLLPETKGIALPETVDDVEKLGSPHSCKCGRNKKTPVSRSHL
# Summary of the method: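 Flp-In HEK293 cells stably expressing transporter, or empty pcDNA5/FRT vector as control, incubated at 37 °C in HBSS with 10 mM HEPES, pH 7.4, with substrate. Uptake quantified by LC-MS with internal standard and normalised to total protein. Ratio = total uptake in transporter cells divided by that in empty-vector cells.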
SMILES,uptake by OCT1*3 in comparison to OCT1*1 (OCT1*3 (R61C)),uptake ratio by OCT3 (normalised to empty vector) (OCT3; 1 µM and 100 µM substance),OCT3 transport category (OCT3),uptake of prostaglandins by OCT1*3 in comparison to wild-type (OCT1*3 (R61C))
"Nc1nc(=O)n([C@@H]2CS[C@H](CO)O2)cc1F [Emtricitabine, emtricitabine]",reduction in uptake,below 2,–,–
"N[C@@H](Cc1ccc(O)c(O)c1)C(=O)O [Levodopa, levodopa]",–,–,"0 (no transport by OCT1, OCT2, and OCT3 occurred (i.e., no kinetic parameters or uptake ratio <2 without significance))",–
"N=C(N)c1ccc(OCCCCCOc2ccc(C(=N)N)cc2)cc1 [Pentamidine, pentamidine]",to a small extent,–,"0 (no transport by OCT1, OCT2, and OCT3 occurred (i.e., no kinetic parameters or uptake ratio <2 without significance))",–
"CCCCC[C@H](O)/C=C/[C@H]1[C@H](O)CC(=O)[C@@H]1C/C=C\CCCC(=O)O [Prostaglandin E2, prostaglandin E2]",–,–,–,reduced to the level of the control cell line
"CCCCC[C@H](O)/C=C/[C@@H]1[C@@H](C/C=C\CCCC(=O)O)[C@@H](O)C[C@H]1O [Prostaglandin F2α, prostaglandin F2α]",–,–,–,reduced to the level of the control cell line
"COc1cc(Cc2cnc(N)nc2N)cc(OC)c1OC [Trimethoprim, trimethoprim]",reduction in uptake,–,"0 (no transport by OCT1, OCT2, and OCT3 occurred (i.e., no kinetic parameters or uptake ratio <2 without significance))",–
"Nc1ccn([C@H]2CC[C@@H](CO)O2)c(=O)n1 [Zalcitabine, zalcitabine]",reduction in uptake,–,"0 (no transport by OCT1, OCT2, and OCT3 occurred (i.e., no kinetic parameters or uptake ratio <2 without significance))",–
